Article PMC6051913 (2018)

Key:
[1] = tested on: Bc 1–5 (RNA, riboswitch) GAUGUAACUGAAUGAAAUGGUGAAGGACGGGUCCACUUAUAACGAGAAGCGGAGGGACUGGCCCAAUGAAGCUUCAGCAACCAUUCAUUGCGAUGAAAAGGUGCUAAAUCCAGCAAAGGGAACUUUGGCAGAUAAGUUGUUGAGUAGAGUGUGAGCUCCGUAACUAGUUACAUC; assay: fluorescence titration; conditions: 125 mM KCl, 10 mM MgCl2; 40 mM HEPES pH 7.5, 37 °C, 100 nM RNA, 10 µM DFHBI
[2] = tested on: Bs 4-4 (RNA, riboswitch) GAUGUAACUGAAUGAAAUGGUGAAGGACGGGUCCACUUGGAAGAUAAGAAGCAAUUCUUAUCAAGAGAAGCAGAGGGACUGGCCCGACGAAGCUUCAGCAACCGGUGUAAUGGCGAUCAGCCAUGACCAAGGUGCUAAAUCCAGCAAGUUGUUGAGUAGAGUGUGAGCUCCGUAACUAGUUACAUC; assay: fluorescence titration; conditions: 125 mM KCl, 10 mM MgCl2; 40 mM HEPES pH 7.5, 37 °C, 100 nM RNA, 10 µM DFHBI

In the case of `C[S+](CC[C@H](N)C(=O)O)C[C@H]1O[C@@H](n2cnc3c(N)ncnc32)[C@H](O)[C@@H]1O` (some centres unmarked), the KD [1] is reported as ~ 1.7 µM and the dissociation constant [2] is reported as 1.0 µM.
